Measurements reported in article PMC11428279, “Exploring Structure–Activity Relationships and Modes of Action of Laterocidine” (ACS Central Science, 2024).
≈ marks a conversion by molar mass, not a printed value. Bridge positions count the residues as written; N and C are the ends. Square brackets hold non-standard residues; d marks the D form. Peptide text beside a SMILES is read from it. * marks the point of attachment. dOrn = NCCC[C@@H](N)C(=O)O; Nonanoyl = CCCCCCCCC(=O)*; Orn = NCCC[C@H](N)C(=O)O

Columns and labels:
[1] = system: A. baumannii 5075 (wild type); assay: MIC; format: cell-based
[2] = system: P. aeruginosa PAO1R; assay: Static time-kill study; format: cell-based; details: 8 × MIC, over 24 h
Procedure: (§1) MICs for laterocidine and its various analogues were determined by broth microdilution[49] for the following polymyxin-susceptible ATCC and clinical isolates: P. aeruginosa FADDI-PA022, FADDI-PA001, FADDI-PA025, FADDI-PA070, FADDI-PA060; A. baumannii FADDI-AB134, FADDI-AB034, FADDI-AB030, FADDI-AB174, FADDI-AB241; K. pneumoniae FADDI-KP032, FADDI-KP022, BM1, FADDI-KP065, FADDI-KP064, FADDI-KP003; and E. cloacae FADDI-EC001, FADDI-EC003, and FADDI-EC006. Experiments were performed with cation-adjusted Mueller–Hinton broth (CAMHB) in 96-well polystyrene microtiter plates. Wells were inoculated with 100 μL of bacterial suspension prepared in CAMHB (containing ∼10^6 CFU/mL) and 100 μL of CAMHB containing increasing concentrations of polymyxins (0–32 μg/mL). MIC measurements were performed in duplicate, with the MIC being the lowest concentration at which visible growth was inhibited following 18–20 h of incubation at 37 °C. Bacterial killing kinetics was investigated over 24 h as described previously.[50]

[3] = system: P. aeruginosa PAO1; assay: Static time-kill study; format: cell-based; details: 8 × MIC, over 24 h
Procedure: as §1

[4] = system: P. aeruginosa PAO1; assay: MIC; format: cell-based; details: polymyxin-susceptible reference strain
[5] = system: A. baumannii 5075R; format: cell-based; details: lipid A modified with phosphoethanolamine
[6] = system: P. aeruginosa FADDI-PA070; assay: Neutropenic murine bloodstream infection model; format: in vivo, P. aeruginosa in mice; details: for Bacteria load in blood: 8 mg/kg iv (free base) 2 h postinoculation, neutropenic mice, 4 h time point, N = 3, mean
Procedure: (§2) All animal studies were approved by the Monash University Animal Ethics Committee and involved female Swiss mice (22–28 g, 7-week-old) housed in microisolators within a PC2 animal laboratory. Mice were kept under a 12/12 h dark/light cycle at 20–24 °C and 50–70% ambient humidity.
The neutropenic bloodstream infection model was undertaken as previously described.[39] Mice were rendered neutropenic through intraperitoneal injections of cyclophosphamide administered 4 days (150 mg/kg) and 1 day (100 mg/kg) prior to inoculation. Bloodstream infection was established by administering a 50 μL bolus of early log-phase bacterial suspension (4 × 10^8 CFU/mL). Laterocidine, peptide 11, and polymyxin B solutions were prepared in sterile saline at a concentration of 1 mg/mL (free base). Two hours postinoculation, mice (n = 3) were injected intravenously with either polymyxin B at 4 mg/kg (free base), peptide 11 at 8 mg/kg (free base), laterocidine at 8 mg/kg (free base), or saline (control mice). Blood was collected immediately after (0 h) and 4 h after drug administration, serially diluted with sterile saline, and appropriately diluted samples manually plated on nutrient agar prior to overnight incubation at 37 °C. Colonies were counted manually and the bacterial load (log10 CFU/mL) in the blood of each mouse calculated. In vivo efficacy was calculated as the difference between the log10 CFU/mL blood values of treated and control mice 4 h postdosing (Δlog10 CFU/mL blood = log10 [treated] CFU/mL blood–log10[control] CFU/mL blood).[54]

[7] = system: P. aeruginosa PAO1R; assay: MIC; format: cell-based; details: polymyxin-resistant paired strain of PAO1
[8] = system: A. baumannii 5075D; format: cell-based; details: lacks lipid A in the outer membrane
[9] = system: Gram-negative strains of P. aeruginosa, A. baumannii, K. pneumoniae, and E. cloacae; format: cell-based
Procedure: as §1

[10] = system: female Swiss mice; assay: Acute toxicity in mice (maximum tolerable dose); format: in vivo; details: intravenous bolus via lateral tail vein, free base, N = 3
Procedure: as §2
For the acute toxicity studies, peptide 11 and laterocidine solutions were prepared in 0.9% saline and stored at 4 °C before use. All mice were administered an intravenous bolus of one peptide (mg/kg free base) via a lateral tail vein (≤0.1 mL). Following the injection, mice were released back into their respective home cages and individually monitored for 24 h for signs of clinical toxicity. Mice displaying any signs of toxicity were humanely euthanized according to the recommended Euthanasia/Humane Experimental End point Criteria.

[11] = system: A. baumannii; format: cell-based
Procedure: as §1

[12] = system: P. aeruginosa; format: cell-based; details: compared with native laterocidine
Procedure: as §1

[13] = system: E. cloacae; format: cell-based; details: compared with native laterocidine
Procedure: as §1

[14] = system: K. pneumoniae; format: cell-based
Procedure: as §1

[15] = system: human kidney proximal tubular (HK-2) cells; assay: Viability of human kidney proximal tubular cells; format: cell-based; details: 24 h of treatment, fluorescence microscopy, mean ± SD, n = 3
From the text: The fluorescence microscopy method used to culture HK-2 cells and the use of fluorescence microscopy to determine the percent cell viability (%) following peptide treatment are the same as published previously.[59],[60]

[16] = compared with native laterocidine

CCCCCCCCC(=O)N[C@H](CO)C(=O)N[C@H](Cc1ccc(O)cc1)C(=O)N[C@H](Cc1c[nH]c2ccccc12)C(=O)N[C@H](CCCN)C(=O)N[C@@H](CCCN)C(=O)NCC(=O)N[C@H](CCCN)C(=O)N[C@@H](Cc1c[nH]c2ccccc12)C(=O)N[C@@H]1C(=O)N[C@@H]([C@@H](C)CC)C(=O)N[C@@H](CC(N)=O)C(=O)NCC(=O)NCC(=O)O[C@@H]1C [Peptide 11] (Nonanoyl-[dS][dY][dW][dOrn][Orn]G[dOrn]WTINGG; ester 9-C)
MIC, A. baumannii 5075 S [1]: 8 µg/mL (≈ 4.98 µM)
time-kill outcome against P. aeruginosa PAO1R [2]: completely inhibiting the growth
time-kill outcome against P. aeruginosa PAO1R ([2]; listed as peptide 11): no viable bacteria were detected at 24 h
time-kill outcome against P. aeruginosa PAO1 [3]: substantial bacterial regrowth nevertheless occurred at all concentrations
MIC, P. aeruginosa PAO1 [4]: 2 µg/mL (≈ 1.25 µM)
MIC, A. baumannii 5075 R [5]: 32 µg/mL (≈ 19.9 µM)
Bacteria load in blood [6]: 2.70%
Bacteria load in blood ([6]; listed as peptide 11): 2.7%
fold increase in antimicrobial activity compared to native laterocidine (peptide 1) ([6]; murine bloodstream infection model, 8 mg/kg): 8 fold
MIC, P. aeruginosa PAO1R [7]: 2 µg/mL (≈ 1.25 µM)
MIC, A. baumannii 5075 D [8]: 32 µg/mL (≈ 19.9 µM)
MICs against all tested strains (range) ([9]; all tested Gram-negative strains): identical MICs to laterocidine
maximum tolerable dose (MTD), Iv (Bolus) [10]: 13.2 mg/kg

CCCCCCCCC(=O)N[C@H](CO)C(=O)N[C@H](Cc1ccc(O)cc1)C(=O)N[C@H](Cc1c[nH]c2ccccc12)C(=O)N[C@H](CCCN)C(=O)N[C@@H](CCCN)C(=O)NCC(=O)N[C@H](CCCN)C(=O)N[C@@H](Cc1c[nH]c2ccccc12)C(=O)N[C@H]1COC(=O)CNC(=O)CNC(=O)[C@H](CC(N)=O)NC(=O)[C@H]([C@@H](C)CC)NC1=O [Peptide 15] (Nonanoyl-[dS][dY][dW][dOrn][Orn]G[dOrn]WSINGG; ester 9-C)
MICs against A. baumannii (range over strains) [11]: 8 to 32 µg/mL
fold increase in MIC (loss of activity) against A. baumannii [11, 16]: 2–8 fold
fold less activity against the two MDR strains of P. aeruginosa [12]: 8–16 fold

CCCCCCCCC(=O)N[C@H](CO)C(=O)N[C@H](Cc1ccc(O)cc1)C(=O)N[C@H](Cc1c[nH]c2ccccc12)C(=O)N[C@H](CCCN)C(=O)N[C@@H](CCCN)C(=O)NCC(=O)N[C@H](CCCN)C(=O)N[C@@H](Cc1c[nH]c2ccccc12)C(=O)N[C@@H]1C(=O)N[C@@H]([C@@H](C)CC)C(=O)N[C@@H](CC(N)=O)C(=O)NCC(=O)N[C@@H](C)C(=O)O[C@@H]1C [Peptide 24] (Nonanoyl-[dS][dY][dW][dOrn][Orn]G[dOrn]WTINGA; ester 9-C)
fold increase in MIC (loss of activity) against all strains / all species [9, 16]: no more than 1 fold
fold increase in MIC for two E. cloacae strains [13]: 2 fold

CCCCCCCCC(=O)N[C@H](C)C(=O)N[C@H](Cc1ccc(O)cc1)C(=O)N[C@H](Cc1c[nH]c2ccccc12)C(=O)N[C@H](CCCN)C(=O)N[C@@H](CCCN)C(=O)NCC(=O)N[C@H](CCCN)C(=O)N[C@@H](Cc1c[nH]c2ccccc12)C(=O)N[C@@H]1C(=O)N[C@@H]([C@@H](C)CC)C(=O)N[C@@H](CC(N)=O)C(=O)NCC(=O)NCC(=O)O[C@@H]1C [Peptide 35] (Nonanoyl-[dA][dY][dW][dOrn][Orn]G[dOrn]WTINGG; ester 9-C)
MICs against K. pneumoniae (range over strains) [14]: 2 to 32 µg/mL
MICs against A. baumannii (range over strains) [11]: ≥ 32 µg/mL

CC[C@H](C)CCCCC(=O)N[C@@H](CCN)C(=O)N[C@H](C(=O)N[C@@H](CCN)C(=O)N[C@H]1CCNC(=O)[C@H]([C@@H](C)O)NC(=O)[C@H](CCN)NC(=O)[C@H](CCN)NC(=O)[C@H](CC(C)C)NC(=O)[C@@H](Cc2ccccc2)NC(=O)[C@H](CCN)NC1=O)[C@@H](C)O [polymyxin B, reference compound] (HELM PEPTIDE1{[CC[C@H](C)CCCCC(=O)[*:2]].[Dab].T.[Dab].[Dab].[Dab].[dF].L.[Dab].[Dab].T}$PEPTIDE1,PEPTIDE1,5:R3-11:R2$$$V2.0; N-terminus assumed; bridges inferred)
time-kill outcome against P. aeruginosa PAO1R [2]: no viable bacteria detected at 8 × MIC on multiple occasions, including at 24 h
time-kill outcome against P. aeruginosa PAO1 [3]: no viable bacteria were detected at 1 h, rapid and significant regrowth subsequently occurred
MIC, P. aeruginosa PAO1 [4]: 0.5 µg/mL (≈ 0.415 µM)
MIC, P. aeruginosa PAO1R [7]: 16 µg/mL (≈ 13.3 µM)
cell viability of HK-2 cells ([15]; 0.01 mM): 74.8 ± 2.6%
cell viability of HK-2 cells ([15]; 0.1 mM): 6.4 ± 3.6%
maximum tolerable dose (MTD), Iv (Bolus) [10]: 5 mg/kg
